According to patent US7517523B2, “Anti-MIF antibodies” (Cytokine PharmaSciences, Inc., priority 1993, dated 2009):

B1: TNFα: recombinant murine TNFα (protein)
chain: LRSSSQNSSDKPVAHVVANHQVEEQLEWLSQRANALLANGMDLKDNQLVVPADGLYLVYSQVLFKGQGCPDYVLLTHTVSRFAISYQEKVNLLSAVKSPCPKDTPEGAELKPWYEPIYLGGVFQLEKGDQLSAEVNLPKYLDFAESGQVYFGVIAL
B2: IFNγ: recombinant murine IFNγ (protein, UniProt P01580 23-155, looked up)
Interferon gamma: HGTVIESLESLNNYFNSSGIDVEEKSLFLDIWRNWQKDGDMKILQSQIISFYLRLFEVLKDNQAISNNISVIESHLITTFFSNSKAKKDAFMSIAKFEVNNPQVQRQAFNELIRVVHQLLPESSLRKRKRSRC
B3: IL-1β: recombinant murine IL-1β (protein, UniProt P10749 118-269, looked up)
Interleukin-1 beta: VPIRQLHYRLRDEQQKSLVLSDPYELKALHLNGQNINQQVIFSMSFVQGEPSNDKIPVALGLKGKNLYLSCVMKDGTPTLQLESVDPKQYPKKKMEKRFVFNKIEVKSKVEFESAEFPNWYISTSQAEHKPVFLGNNSGQDIIDFTMESVSS
B4: IL-6: recombinant murine IL-6 (protein, UniProt P08505 25-211, looked up)
Interleukin-6: FPTSQVRRGDFTEDTTPNRPVYTTSQVGGLITHVLWEIVEMRKELCNGNSDCMNNDDALAENNLKLPEIQRNDGCYQTGYNQEICLLKISSGLLEYHSYLEYMKNNLKDNKKDKARVLQRDTETLIHIFNQEVKDLHKIVLPTPISNALLTDKLESQKEWLRTKTIQFILKSLEEFLKVTLRSTRQT

What was measured:
[1] = tested on: Sprague-Dawley female rats; test: Serum MIF after i.v. steroid injection; type: in vivo, rat; settings: 10 mg/kg i.v., serum Western blotting
Protocol: Canulated Sprague-Dawley female rats were purchased from Zivic-Miller. Animals were housed with free access to food and water and were acclimatized for at least 2 days prior to experimentation. Rats were injected i.v. through the jugular vein with either dexamethasone (1, 10 or 20 mg/kg), or with RU38486 (mifepristone) (1 or 10 mg/kg), or with the two drugs together (both at 10 mg/kg, RU38486 was injected 15 min. before dexamethasone). Serum was collected 3, 6, and 9 hours post-steroids injection and analyzed by Western blotting with anti-MIF antibody.

[2] = tested on: Peritoneal Macrophages; test: Steroid-induced MIF secretion by peritoneal macrophages; type: cell-based, mouse; settings: 12 to 15 h
Protocol: Cells were incubated for 12 to 15 h with various steroids (at concentrations ranging from 10^−6M to 10^−14M).
Samples were resolved on 18% SDS polyacrylamide gels under reducing conditions and transferred onto nitrocellulose membrane (Schleicher and Schuell, Keene, N.H.) at 50 V and 150 mA for 16 h. Membranes were blocked with 500 mM NaCl, 50 mM Tris-Base, pH 7.5 buffer containing 5% nonfat dry milk and 0.05% Tween-20 and incubated first with polyclonal anti-rMIF serum and then with horseradish peroxidase-conjugated goat anti-rabbit IgG antibody (each diluted 1:1000 in 500 mM NaCl, 50 mM Tris-Base, pH 7.5 buffer with 1% BSA). […] Incubations were 1 h each. MIF was visualized by development with chloronaphtol/H2O2 or with TMB substrate.

[3] = tested on: RAW macrophages; test: Inhibition of the macrophage MIF response to dexamethasone; type: cell-based, mouse; settings: pretreatment and co-administration, 10^−6M
Protocol: RAW 264.7 murine macrophages were obtained from the American Type Culture Collection (Rockville, Md.). Cells were grown in RPMI 1640 medium (Gibco, Grand Island, N.Y.), 10% heat-inactivated fetal bovine serum (FBS) (HyClone, Logan, Utah), 50 μg/ml of carbenicillin and gentamicin. […] After 3 h of incubation at 37° C. in a humidified atmosphere with 5% CO2, nonadherent cells were removed and wells were washed twice with RPMI/1% FBS. In some experiments designed to test for inhibition of MIF release, test compounds were then added to the culture media. For example, the cells were pre-treated with 20α-dihydrocorticol at a final concentration of 10^−6M. Cells then were incubated for 12-15 h with various steroids at concentrations ranging from 10^−6M to […] (e.q., dexamethasone), along with the desired test compound (e.g., 20α-dihydrocortisol) if any. At the end of experiment, cell culture media were collected and centrifuged (10 min at 800 g). Cell-conditioned media were concentrated 10-fold by membrane filtration (10 kDa cut-off) (Centricon-10, Amicon, Beverly, N.Y.).
Samples were resolved on 18% SDS polyacrylamide gels under reducing conditions and transferred onto nitrocellulose membrane (Schleicher and Schuell, Keene, N.H.) at 50 V and 150 mA for 16 h. […]

[4] = tested on: AtT-20 pituitary cells; test: MIF release from pituitary (AtT-20) cells (Western blotting); type: cell-based, mouse; settings: 1-100 ng/ml
Protocol: AtT-20 cells were cultured for 24 hours in serum-free medium (enriched serum-free Joklik's medium from Gibco) containing various concentrations of LPS (E. coli LPS 0111:B4 from Sigma) at 0.5 μg/ml-50 μg/ml. […] This protein was transferred to polyvinylidene difluoride membrane and its primary N-terminal amino acid sequence was determined by automated gas-phase sequencing (Applied Biosystems).
MIF release from pituitary (AtT-20) cells was analyzed by Western blotting with anti-MIF antibody (FIG. 8). 1.5×10^5 pituitary cells were cultured serum-free for 18 h with different concentrations of LPS. After transfer, nitrocellulose membranes were incubated with rabbit anti-rMIF serum (1:1000 dilution) and bound antibody visualized with horseradish peroxidase-conjugated goat anti-rabbit antibody. 100 ng of rMIF was electrophoresed on the same gel for reference. Control supernatants (C) contained 1 μg/ml LPS that was added after removal of cells.

[5] = tested on: thioglycollate-elicited peritoneal macrophages; test: MIF secretion by thioglycollate-elicited peritoneal macrophages stimulated with LPS or IFNγ plus LPS; type: cell-based, mouse; settings: IFNγ 100 IU/ml given 1 h prior to LPS
Protocol: After 3 h of incubation at 37° C. in a humidified atmosphere with 5% CO2, nonadherent cells were removed and wells were washed twice with RPMI/1% FBS. Cells then were incubated for 12 h with LPS (at concentrations ranging from 1 pg/ml to 1 μg/ml) or with cytokines (1 or 10 ng/ml for TNFα, IL-1β, and IL-6, and 10, 100 or 1000 IU/ml for IFNγ) diluted in RPMI/1% FBS. For time-course experiments, conditioned media of parallel cultures were removed at 3, 6, 9, 12 and 15 h intervals after LPS stimulation. […] Cells were incubated for 12 h either with LPS or with IFNγ plus LPS. When co-stimulated with IFNγ and LPS, cells were first incubated for an hour with IFNγ (100 IU/ml) before addition of LPS at the indicated concentrations. At the end of each experiment, cell-culture media were collected, centrifuged (10 min at 800 g), and supplemented with PMSF (1 mM). Supernatants then were concentrated 10-fold by membrane filtration (10 kD cut-off) (Centricon-10, Amicon, Beverly, N.Y.). […]
For Western blotting, samples were resolved on 18% SDS polyacrylamide gels under reducing conditions and transferred onto nitrocellulose membrane (Schleicher and Schuell, Keene, N.H.) at 50 V and 150 mA for 16 h. […] Serum MIF bands were quantified by laser densitometry (Shimadzu FDU-3, CS-9000U, Braintree, Mass.). Faint densitometric signals in the MIF region were detected in most sera prior to LPS administration (0 h). […]

Molecule | Range of Steroid Concentrations Inducing MIF in Peritoneal Macrophages [2] | MIF release from pituitary cells [4] | also measured
CC#C[C@]1(O)CC[C@H]2[C@@H]3CCC4=CC(=O)CCC4=C3[C@@H](c3ccc(N(C)C)cc3)C[C@@]21C [RU-38486 (mifepristone), mifepristone] | – | – | MIF secretion in vivo [1]: induced MIF secretion
C[C@@H]1C[C@H]2[C@@H]3CCC4=CC(=O)C=C[C@]4(C)[C@@]3(F)[C@@H](O)C[C@]2(C)[C@@]1(O)C(=O)CO [Dexamethasone] | 10^−8 to 10^−12 M | – | –
C[C@]12CCC(=O)C=C1CC[C@@H]1[C@@H]2[C@@H](O)C[C@]2(C=O)[C@@H](C(=O)CO)CC[C@@H]12 [Aldosterone] | 10^−8 to 10^−14 M | – | –
C[C@]12CCC(=O)C=C1CC[C@@H]1[C@@H]2[C@@H](O)C[C@@]2(C)[C@H]1CC[C@]2(O)C(=O)CO [Hydrocortisone] | 10^−8 to 10^−16 M | – | –
C[C@]12CCC(=O)C=C1CC[C@@H]1[C@@H]2[C@@H](O)C[C@@]2(C)[C@H]1CC[C@]2(O)[C@@H](O)CO [4-pregnene-11β,17α,20α,21-tetrol-3-one] | 10^−10 to 10^−14 M | – | Effect on the MIF response to dexamethasone [3]: attenuates or abolishes
C[C@]12CC[C@H]3[C@@H](CCC4=CC(=O)CC[C@@]43C)[C@@H]1CC[C@@H]2O [Testosterone] | 10^−8 to 10^−14 M | – | –
B1 | – | not released | –
B2 | – | not released | Increase in LPS responsiveness on co-stimulation [5]: > 1000 fold
B3 | – | not released | –
B4 | – | not released | –
